Test results taken from patent US20260098008A1, “COVALENT, CHEMOGENETIC ACTIVATORS FOR K2P POTASSIUM CHANNELS AND USES THEREOF” (THE REGENTS OF THE UNIVERSITY OF CALIFORNIA, priority 2022, published 2026).
Residue numbers refer to the chain shown, from its start.

How the values were obtained:
A286F K2P2.1 (TREK-1) = target: T1, A286F K2P2.1 (TREK-1) (Mus musculus, UniProt P97438, A301F); assay: TEVC in Xenopus oocytes, attenuated channels; assay type: cell-based; details: 20 μM; sequential addition of ML335, CAT335, BL-1249; 0 mV
T1 construct: expressed in transfected cells; host or cells: Xenopus laevis oocytes injected with mRNA
T1 sequence (P97438 1-411 isoform P97438-2 A286F): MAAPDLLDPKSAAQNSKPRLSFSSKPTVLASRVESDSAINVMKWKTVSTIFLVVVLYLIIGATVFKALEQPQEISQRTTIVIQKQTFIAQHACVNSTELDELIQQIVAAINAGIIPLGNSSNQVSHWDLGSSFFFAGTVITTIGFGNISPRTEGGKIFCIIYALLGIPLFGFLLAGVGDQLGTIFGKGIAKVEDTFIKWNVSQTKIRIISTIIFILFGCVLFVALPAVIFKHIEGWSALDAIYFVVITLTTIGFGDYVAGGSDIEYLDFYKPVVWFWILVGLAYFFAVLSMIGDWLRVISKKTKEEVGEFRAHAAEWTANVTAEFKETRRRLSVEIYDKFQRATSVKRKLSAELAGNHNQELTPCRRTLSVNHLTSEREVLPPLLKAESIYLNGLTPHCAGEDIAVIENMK
From the text: (§1) Mouse K2P2.1 (TREK-1) (Genbank accession number: NP_034737.2), mouse K2P10.1 (TREK-2) (NM_001316665.1), mouse K2P4.1 (TRAAK) (NM_008431.3), human K2P4.1 (TRAAK) (NM_033310.2) and mouse K2P18.1(TRESK) (NM_207261.3) were used for this study. Point mutations were introduced by site-directed mutagenesis using custom primers and confirmed by sequencing before use. For studies using Xenopus oocytes, K2P channels were subcloned into a previously reported pGEMHE/pMO vector (46). For expression in HEK293 cells, mouse K2P2.1 (TREK-1) and mutants were expressed from a previously described pIRES2-EGFP vector in HEK293 cells (46,47). K2P2.1 (TREK-1) tandems were constructed by connecting the open reading frames for the individual subunits with a linker encoding the […] (SEQ ID NO: 19) sequence. Tandems used for HEK293 cells included an N-terminal HA tag ([…] (SEQ ID NO: 20)) on the first subunit.
(§2) Xenopus laevis oocytes were harvested according to UCSF IACUC Protocol AN129690 and digested using collagenase (Worthington Biochemical Corporation, #LS004183, 0.8-1.0 mg/mL) in Ca^21-free ND96 (96 mM NaCl, 2 mM KCl, 3.8 mM MgCl2, 5 mM HEPES pH 7.4) immediately post-harvest, as previously reported (31,33). Oocytes were maintained at 18° C. in ND96 (96 mM NaCl, 2 mM KCl, 1.8 mM CaCl2, 2 mM MgCl2, 5 mM HEPES pH 7.4) supplemented with antibiotics (100 units mL^−1 penicillin, 100 μg mL^−1 streptomycin, 50 μg mL^−1 gentimycin) and used for experiments within one week of harvest.
(§3) Defolliculated stage V-VI oocytes were microinjected with 0.5-36 ng mRNA and currents were recorded within 16-48 h hours of injection.
(§4) For recordings, oocytes were impaled with borosilicate recording microelectrodes (0.4-2.0 MΩ resistance) backfilled with 3 M KCl and were subjected to constant perfusion of ND96 at a rate of 3 ml min^−1. Recording solutions containing K2P activators were prepared immediately prior to use from DMSO stocks (20-100 mM), with final DMSO concentrations of 0.1%. Currents were evoked from a −80 mV holding potential followed by a 300 ms ramp from −150 mV to +50 mV. Data were recorded using a GeneClamp 500B amplifier (MDS Analytical Technologies) controlled by pCLAMP8 software (Molecular Devices), and digitized at 1 kHz using Digidata 1332 Å digitizer (MDS Analytical Technologies). For each recording, control solution (ND96) was perfused over a single oocyte until current was stable before switching to solutions containing the test compounds at various concentrations. Representative traces and dose response plots were generated in GraphPad Prism 9.

G171F K2P2.1 (TREK-1) = target: T2, G171F K2P2.1 (TREK-1) (Mus musculus, UniProt P97438, G186F); assay: TEVC in Xenopus oocytes, attenuated channels; assay type: cell-based; details: 20 μM; sequential addition of ML335, CAT335, BL-1249; 0 mV
T2 construct: expressed in transfected cells; host or cells: Xenopus laevis oocytes injected with mRNA
T2 sequence (P97438 1-411 isoform P97438-2 G171F): T1 sequence (P97438 1-411 isoform P97438-2 A286F) with G171F, F286A
From the text: as §1, §2, §3, §4

Structure (SMILES)	Fold-activation (I activator/I control) (A286F K2P2.1 (TREK-1))	Fold-activation (I activator/I control) (G171F K2P2.1 (TREK-1))
c1ccc(-c2nn[nH]n2)c(Nc2cccc3c2CCCC3)c1 [BL-1249, reference compound]	19.4±1.3 fold	3.8±0.5 fold
O=C(NCc1ccc(Cl)cc1Cl)c1ccc(N2C(=O)C=CC2=O)cc1 [CAT335]	insensitive	insensitive
CS(=O)(=O)Nc1ccc(C(=O)NCc2ccc(Cl)cc2Cl)cc1 [ML335, reference compound]	1-1.8 fold	1-1.8 fold
